The results in this text go back to US20250136608A1, “COMPOUNDS CONTAINING A GEM-DIFLUORIDE GROUP AND PREPARATION METHOD AND USE THEREOF” (CGENETECH (SUZHOU, CHINA) CO., LTD, priority 2022, published 2025).

A short description of series [1]: Oral pharmacokinetic test in mice. The following applies: male, C57, mouse, in vivo, 10 mg/kg.
The target of the next series is JAK3 (Homo sapiens, UniProt P52333). Briefly: JAK3 kinase inhibitory activity test (HTRF). It is filed as biochemical. As to conditions: JAK3 0.1 ng/μL, ATP 3 μM, substrate 1 μM, 3 h.
The next series can be described thus: in vivo. The following applies: male, C57, mouse, po.

As a reminder, the AUC(0-inf) is total exposure, with the tail of the curve extrapolated. Lower therefore signals low exposure. One may read the AUC(0-t) as the area under the concentration-time curve up to a stated or last time point. Low values mean less exposure, high ones more exposure. In general, Cmax refers to the maximum level reached in the sampled fluid or tissue. As usually defined, the MRT inf is the average time that molecules of a dose stay in the body. By MRT last is commonly meant the average time that molecules of a dose stay in the body. The Tmax is the time from dosing to the highest level. In general, half-life refers to how long it takes for the measured level to halve. The low end stands for rapid decline, the high end for slow decline. Broadly, the IC50 is the concentration that inhibits the measured activity by half.

Consider `N#CCC1(n2cc(-c3ncnc4[nH]ccc34)cn2)CCC(F)(F)CC1` [Compound 1], for which, in series [1], the AUC(0-inf) is 2150 ng·h/mL, the AUC(0-t) was found to be 2130 ng·h/mL, the concentration peaked (Cmax) at 1480 ng/mL and the MRT inf turned out to be 81 min. Moreover, in series [1], the MRT last is 75 min, the Tmax worked out at 19.8 min and the half-life is 70.8 min.
`N#CCC1(n2cc(-c3ncnc4[nH]ccc34)cn2)CCC(C(F)(F)F)CC1` (centres unmarked) [Compound 3] gave an IC50 against JAK3 of 151 nM.
In turn, `N#CCC(C1CCC(F)(F)CC1)n1cc(-c2ncnc3[nH]ccc23)cn1` (centres unmarked) [Compound 4] displayed an IC50 at JAK3 of 402 nM.
In the series “in vivo” (10 mg/kg), `N#CCC(C1CCC(C(F)(F)F)CC1)n1cc(-c2ncnc3[nH]ccc23)cn1` (centres unmarked) [Compound 5] showed an AUC(0-inf) of 2000 ng·h/mL, an AUC(0-t) of 1980 ng·h/mL, a Cmax of 1410 ng/mL and an MRT inf of 78.6 min. Also, in “in vivo” (10 mg/kg), the MRT last was 73.2 min, the Tmax was 15 min and the half-life is 81.6 min. At JAK3, this molecule yielded an IC50 of 488 nM.
With `N#CC[C@@H](CCC(F)(F)F)n1cc(-c2ncnc3[nH]ccc23)cn1` [Compound 6-1], in “in vivo” (10 mg/kg), the AUC(0-inf) is 9240 ng·h/mL, the AUC(0-t) came out at 9230 ng·h/mL, the Cmax was found to be 6320 ng/mL and the MRT inf was found to be 69 min. In addition, in “in vivo” (10 mg/kg), the MRT last amounted to 68.4 min, the time of peak concentration (Tmax) worked out at 15 min and the half-life is 50.4 min. The IC50 against JAK3 was 311 nM.
In the case of `N#CC[C@H](CCC(F)(F)F)n1cc(-c2ncnc3[nH]ccc23)cn1` [Compound 6-2], in “in vivo” (10 mg/kg), the AUC(0-inf) was 4770 ng·h/mL, the AUC(0-t) came out at 4760 ng·h/mL, the Cmax was determined as 6770 ng/mL and the MRT inf was 36.6 min. Besides, in “in vivo” (10 mg/kg), the mean residence time (MRT last) worked out at 36 min, the Tmax was 4.8 min and the half-life is 44.4 min. Also, 116 nM corresponded to half-maximal inhibition against JAK3 (IC50).
In the series “in vivo” (10 mg/kg), `N#CCC(C1CC(F)(F)C1)n1cc(-c2ncnc3[nH]ccc23)cn1` (centres unmarked) [Compound 7] came in with an AUC(0-inf) of 1660 ng·h/mL, an AUC(0-t) of 1660 ng·h/mL, a Cmax of 3190 ng/mL and an MRT inf of 30.6 min. In the series “in vivo” (10 mg/kg), the mean residence time MRT last is 29.4 min, the Tmax amounted to 4.8 min and the half-life was 89.4 min. This molecule returned an IC50 against JAK3 of 479 nM.
Turning to `CC(C)(C(CC#N)n1cc(-c2ncnc3[nH]ccc23)cn1)C(F)(F)F` (centres unmarked) [Compound 8], at JAK3, the IC50 stood at 419 nM.
The same measure, in the same setting: the same measure for `N#CCC(n1cc(-c2ncnc3[nH]ccc23)cn1)C1(C(F)(F)F)CCC1` (centres unmarked) [Compound 9]: 401 nM.
In the series “in vivo” (5 mg/kg), `N#CC[C@H](C1CCCC1)n1cc(-c2ncnc3[nH]ccc23)cn1` [Ruxolitinib, reference compound] showed an AUC(0-inf) of 580 ng·h/mL, an AUC(0-t) of 578 ng·h/mL, a Cmax of 893 ng/mL and an MRT inf of 42.6 min. For the same molecule, in the series “in vivo” (5 mg/kg), the MRT last was 42 min, the Tmax was 7.8 min and the half-life was 30 min.
